Source: ChEMBL document CHEMBL1201862, “PubChem BioAssay data set” (2004)
Activity calls are given as the source filed them.

Tests used:
[1] = molecular target: DNA repair and recombination protein RAD54-like (Homo sapiens, UniProt Q92698); assay: RAD54 Holliday junction migration blockers – biochemical, fluorescence, cherry-picked samples, dose series, confirmation (AID 651657); format: functional
[2] = molecular target: T1, Histone-lysine N-methyltransferase NSD2 (Homo sapiens, UniProt O96028); format: biochemical
T1 sequence (O96028 whole entry): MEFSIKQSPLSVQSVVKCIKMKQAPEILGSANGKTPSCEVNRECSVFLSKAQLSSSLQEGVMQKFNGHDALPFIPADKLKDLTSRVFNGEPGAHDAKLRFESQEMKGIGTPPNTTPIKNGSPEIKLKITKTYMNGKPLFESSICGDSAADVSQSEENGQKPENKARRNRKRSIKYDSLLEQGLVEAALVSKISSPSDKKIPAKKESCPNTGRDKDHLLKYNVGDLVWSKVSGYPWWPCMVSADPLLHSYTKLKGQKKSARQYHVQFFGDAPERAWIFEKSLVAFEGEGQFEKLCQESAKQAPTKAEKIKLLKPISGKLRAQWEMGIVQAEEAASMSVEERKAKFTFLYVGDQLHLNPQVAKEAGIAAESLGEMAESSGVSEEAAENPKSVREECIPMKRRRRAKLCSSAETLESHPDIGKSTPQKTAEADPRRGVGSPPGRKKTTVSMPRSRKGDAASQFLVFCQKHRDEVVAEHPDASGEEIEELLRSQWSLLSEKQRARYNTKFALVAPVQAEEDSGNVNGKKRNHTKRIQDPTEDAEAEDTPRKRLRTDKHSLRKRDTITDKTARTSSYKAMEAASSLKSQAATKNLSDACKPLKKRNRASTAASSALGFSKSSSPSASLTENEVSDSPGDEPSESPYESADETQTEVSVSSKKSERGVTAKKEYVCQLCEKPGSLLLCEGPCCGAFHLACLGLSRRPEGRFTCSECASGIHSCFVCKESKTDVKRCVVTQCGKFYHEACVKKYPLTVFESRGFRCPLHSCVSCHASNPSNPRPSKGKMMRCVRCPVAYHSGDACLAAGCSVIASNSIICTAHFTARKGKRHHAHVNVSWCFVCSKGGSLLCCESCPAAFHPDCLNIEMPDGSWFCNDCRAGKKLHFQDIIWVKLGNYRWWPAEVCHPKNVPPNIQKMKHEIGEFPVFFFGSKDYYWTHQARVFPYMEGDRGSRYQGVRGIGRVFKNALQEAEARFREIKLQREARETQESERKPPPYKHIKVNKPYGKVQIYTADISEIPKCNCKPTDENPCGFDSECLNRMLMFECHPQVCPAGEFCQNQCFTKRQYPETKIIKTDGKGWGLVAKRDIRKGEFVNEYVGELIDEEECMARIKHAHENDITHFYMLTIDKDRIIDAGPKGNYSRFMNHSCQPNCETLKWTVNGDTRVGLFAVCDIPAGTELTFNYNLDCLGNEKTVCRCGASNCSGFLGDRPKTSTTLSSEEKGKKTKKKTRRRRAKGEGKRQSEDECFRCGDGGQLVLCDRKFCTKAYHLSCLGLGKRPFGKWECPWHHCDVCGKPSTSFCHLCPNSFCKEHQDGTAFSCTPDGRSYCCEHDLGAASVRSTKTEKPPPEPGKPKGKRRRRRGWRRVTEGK

[3] = molecular target: Ras and Rab interactor 1/Tyrosine-protein kinase ABL1 (Homo sapiens, UniProt P00519+Q13671); format: functional;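 note: biochemical TR-FRET dose-response test measuring inhibition of binding between Rin1 and Abl proteins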
[4] = molecular target: Nonstructural protein 1 (Influenza A virus, UniProt Q194T2); format: functional, Influenza A virus (A/California/07/2009(H1N1))
Sequence of Nonstructural protein 1 (Q194T2 whole entry): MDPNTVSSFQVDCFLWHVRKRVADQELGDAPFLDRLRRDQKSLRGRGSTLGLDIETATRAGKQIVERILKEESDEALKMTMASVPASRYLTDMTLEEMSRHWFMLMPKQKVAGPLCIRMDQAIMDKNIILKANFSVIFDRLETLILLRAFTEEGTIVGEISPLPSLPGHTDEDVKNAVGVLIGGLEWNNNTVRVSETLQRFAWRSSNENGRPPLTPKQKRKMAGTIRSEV

[5] = molecular target: 26S proteasome non-ATPase regulatory subunit 14 (Homo sapiens, UniProt O00487); assay: inhibition of proteasome subunit RPN11 – biochemical, fluorescence polarization, uHTS hits, confirmation (AID 602368); format: functional
Sequence of 26S proteasome non-ATPase regulatory subunit 14 (O00487 whole entry): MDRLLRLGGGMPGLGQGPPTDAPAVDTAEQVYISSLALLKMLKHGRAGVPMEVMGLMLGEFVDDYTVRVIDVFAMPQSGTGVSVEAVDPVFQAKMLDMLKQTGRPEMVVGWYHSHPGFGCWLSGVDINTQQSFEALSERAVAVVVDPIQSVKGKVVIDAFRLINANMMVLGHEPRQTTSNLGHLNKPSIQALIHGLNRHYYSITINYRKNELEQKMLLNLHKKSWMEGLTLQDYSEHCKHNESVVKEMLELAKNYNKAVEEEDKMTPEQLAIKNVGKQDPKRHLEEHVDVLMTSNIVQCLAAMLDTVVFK

[6] = molecular target: 72 kDa type IV collagenase (Homo sapiens, UniProt P08253); assay: Dose Response validation of uHTS RPN11 inhibitor hits using a MMP-2 Fluorescence assay.; format: functional
Sequence of 72 kDa type IV collagenase (P08253 whole entry): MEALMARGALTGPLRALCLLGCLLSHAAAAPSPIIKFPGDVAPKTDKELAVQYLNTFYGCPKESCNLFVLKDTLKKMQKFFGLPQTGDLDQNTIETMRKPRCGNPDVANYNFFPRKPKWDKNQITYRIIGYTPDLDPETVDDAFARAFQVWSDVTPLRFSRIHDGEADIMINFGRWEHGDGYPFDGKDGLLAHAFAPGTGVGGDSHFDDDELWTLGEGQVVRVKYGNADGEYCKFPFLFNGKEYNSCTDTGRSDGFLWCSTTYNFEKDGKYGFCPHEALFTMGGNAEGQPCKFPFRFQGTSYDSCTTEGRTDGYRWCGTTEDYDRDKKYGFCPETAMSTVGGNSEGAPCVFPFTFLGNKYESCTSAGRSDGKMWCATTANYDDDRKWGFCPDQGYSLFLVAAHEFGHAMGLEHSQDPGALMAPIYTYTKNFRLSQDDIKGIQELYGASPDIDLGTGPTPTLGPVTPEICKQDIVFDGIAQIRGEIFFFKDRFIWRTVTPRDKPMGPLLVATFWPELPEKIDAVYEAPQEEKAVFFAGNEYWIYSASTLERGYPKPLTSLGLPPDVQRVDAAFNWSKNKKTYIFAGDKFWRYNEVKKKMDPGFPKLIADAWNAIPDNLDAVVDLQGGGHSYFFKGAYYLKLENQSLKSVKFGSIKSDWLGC

[7] = molecular target: Prothrombin (Bos taurus, UniProt P00735); assay: thrombin protease inhibitors – biochemical, fluorescence polarization, uHTS hits, dose response (AID 602369); format: functional
[8] = viability of PTEN-deleted HCT116 cells – cell-based, HCT116 PTEN knockout, dose response (AID 1047); format: functional;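 note: HCT116 colon tumor cells with PTEN knocked out; cells exposed to compound for 60 hours before readout; potency for loss of cell viability measured by luminescence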
[9] = viability of HCT116 lacking mutant beta-catenin – cell-based, human colon tumor, dose response (AID 1045); format: functional;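 note: HCT116 colon tumor cells with beta catenin knocked out; cells exposed to compound for 60 hours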
[10] = molecular target: T2, Mannose-6-phosphate isomerase (Homo sapiens, UniProt P34949); assay: MPI inhibition at elevated mannose 6-phosphate – biochemical, fluorescence intensity, high mannose 6-phosphate, primary screen (AID 1220)
T2 sequence (P34949 whole entry): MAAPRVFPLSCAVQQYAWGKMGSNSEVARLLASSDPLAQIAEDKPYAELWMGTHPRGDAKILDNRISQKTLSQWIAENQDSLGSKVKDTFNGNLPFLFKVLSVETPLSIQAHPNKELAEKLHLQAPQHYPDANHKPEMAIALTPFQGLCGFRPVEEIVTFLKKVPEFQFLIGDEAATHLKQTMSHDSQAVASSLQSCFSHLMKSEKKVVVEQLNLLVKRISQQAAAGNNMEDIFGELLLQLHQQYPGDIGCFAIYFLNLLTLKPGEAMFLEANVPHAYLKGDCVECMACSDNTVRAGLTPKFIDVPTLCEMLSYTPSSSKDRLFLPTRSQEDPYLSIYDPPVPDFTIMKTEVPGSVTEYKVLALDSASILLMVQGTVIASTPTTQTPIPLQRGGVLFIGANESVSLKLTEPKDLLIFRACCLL

[11] = molecular target: Heat shock protein HSP 90-alpha (Homo sapiens, UniProt P07900); format: functional, organism-based
[12] = system: INS1; assay: INS-1E survival protection against cytokine death – cell-based, luminescence, retest, dose response (AID 449756); format: functional; conditions: Rattus norvegicus, INS1;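 note: cell death triggered by IL-1 beta plus TNF-alpha plus IFN-gamma mixture; protective hits raise ATP signal compared with cytokine alone wells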
[13] = Fluorescence-based cell-based high throughput dose response assay for inhibitors of the interaction of nucleotide-binding oligomerization domain containing 2 (NOD2) and the receptor-interacting serine-threonine kinase 2 (RIPK2).; format: functional; conditions: Homo sapiens
[14] = molecular target: Beta Lactamase (Pseudomonas aeruginosa, UniProt Q932Y6); assay: BLA reporter interference, concentration series – BLA reporter cells, FRET fluorescence, artefact control for NOD2-RIPK2 interaction inhibitor project, dose response (AID 651552); format: functional, cell-based
Sequence of Beta Lactamase (Q932Y6 whole entry): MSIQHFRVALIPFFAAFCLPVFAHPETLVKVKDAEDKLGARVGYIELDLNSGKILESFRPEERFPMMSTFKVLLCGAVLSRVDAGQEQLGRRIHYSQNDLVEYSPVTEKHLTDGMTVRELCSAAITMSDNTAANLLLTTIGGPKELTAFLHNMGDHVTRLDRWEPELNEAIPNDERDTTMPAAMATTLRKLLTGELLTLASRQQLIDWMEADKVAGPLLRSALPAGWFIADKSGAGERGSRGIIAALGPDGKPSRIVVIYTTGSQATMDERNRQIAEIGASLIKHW

[15] = molecular target: T3, Methionyl-tRNA synthetase, putative (Trypanosoma brucei brucei, UniProt Q38C91); format: functional, Trypanosoma brucei brucei strain 927/4 GUTat10.1
T3 sequence (Q38C91 whole entry): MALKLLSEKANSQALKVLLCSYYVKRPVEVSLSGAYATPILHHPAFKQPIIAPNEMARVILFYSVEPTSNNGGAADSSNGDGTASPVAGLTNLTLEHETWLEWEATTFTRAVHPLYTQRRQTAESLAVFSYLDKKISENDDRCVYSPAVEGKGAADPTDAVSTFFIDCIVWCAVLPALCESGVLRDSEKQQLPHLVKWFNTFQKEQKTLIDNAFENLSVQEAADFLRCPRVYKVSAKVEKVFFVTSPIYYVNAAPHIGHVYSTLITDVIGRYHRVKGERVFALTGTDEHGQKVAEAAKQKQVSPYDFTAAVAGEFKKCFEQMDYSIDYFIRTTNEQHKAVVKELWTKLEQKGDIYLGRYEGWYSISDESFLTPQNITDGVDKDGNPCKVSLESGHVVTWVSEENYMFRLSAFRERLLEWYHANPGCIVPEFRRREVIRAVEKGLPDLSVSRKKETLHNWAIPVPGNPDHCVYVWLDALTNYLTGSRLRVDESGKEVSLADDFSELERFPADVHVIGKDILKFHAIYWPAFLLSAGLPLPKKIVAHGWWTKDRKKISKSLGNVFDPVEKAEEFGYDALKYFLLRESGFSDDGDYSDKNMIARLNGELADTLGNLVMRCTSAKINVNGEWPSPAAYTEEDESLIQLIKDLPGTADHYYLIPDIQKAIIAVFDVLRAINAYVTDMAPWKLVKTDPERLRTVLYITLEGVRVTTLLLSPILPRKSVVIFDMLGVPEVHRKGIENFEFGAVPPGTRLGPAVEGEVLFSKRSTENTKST

[16] = Counterscreen for inhibitors of Trypanosoma brucei methionyl tRNA synthetase (MetRS): Luminescence-based cell-based high throughput dose response assay to identify compounds that are cytotoxic to Jurkat human T lymphocyte cells.; format: functional
[17] = molecular target: T3, Methionyl-tRNA synthetase, putative; format: functional, Trypanosoma brucei brucei strain 927/4 GUTat10.1; remark: listed apart in the source
[18] = Late stage counterscreen for inhibitors of Trypanosoma brucei methionyl tRNA synthetase (MetRS): Luminescence-based cell-based high throughput dose response assay to identify compounds that are cytotoxic to Jurkat human T lymphocyte cells.; format: functional
[19] = system: HeLa; assay: ATP-based viability loss in HeLa cells – cell-based, CellTiter-Glo luminescence, cherry-pick samples, cytotoxicity control for MITF activator project, dose response (AID 540259); format: functional; conditions: Homo sapiens
[20] = molecular target: Cytochrome P450 3A4 (Homo sapiens, UniProt P08684); conditions: Potency;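 note: confirmatory qHTS run detecting inhibitors and substrates of CYP3A4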
Sequence of Cytochrome P450 3A4 (P08684 whole entry): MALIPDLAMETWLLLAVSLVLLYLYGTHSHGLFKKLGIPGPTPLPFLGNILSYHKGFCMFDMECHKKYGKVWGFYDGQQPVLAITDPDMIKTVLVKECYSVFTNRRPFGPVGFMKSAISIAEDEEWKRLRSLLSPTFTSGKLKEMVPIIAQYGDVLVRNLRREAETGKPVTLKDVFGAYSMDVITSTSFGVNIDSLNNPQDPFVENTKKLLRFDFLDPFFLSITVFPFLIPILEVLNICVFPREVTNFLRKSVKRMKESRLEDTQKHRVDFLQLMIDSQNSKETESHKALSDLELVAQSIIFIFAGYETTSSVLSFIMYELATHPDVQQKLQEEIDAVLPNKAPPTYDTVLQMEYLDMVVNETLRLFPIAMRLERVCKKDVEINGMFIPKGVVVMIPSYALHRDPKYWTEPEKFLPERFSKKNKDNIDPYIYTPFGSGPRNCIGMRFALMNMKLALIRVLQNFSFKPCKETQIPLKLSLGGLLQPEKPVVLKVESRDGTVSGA

[21] = molecular target: Aryl hydrocarbon receptor (Homo sapiens, UniProt P35869); conditions: Potency;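 note: confirmatory quantitative high-throughput screen measuring activation of the AhR signaling pathway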
Sequence of Aryl hydrocarbon receptor (P35869 whole entry): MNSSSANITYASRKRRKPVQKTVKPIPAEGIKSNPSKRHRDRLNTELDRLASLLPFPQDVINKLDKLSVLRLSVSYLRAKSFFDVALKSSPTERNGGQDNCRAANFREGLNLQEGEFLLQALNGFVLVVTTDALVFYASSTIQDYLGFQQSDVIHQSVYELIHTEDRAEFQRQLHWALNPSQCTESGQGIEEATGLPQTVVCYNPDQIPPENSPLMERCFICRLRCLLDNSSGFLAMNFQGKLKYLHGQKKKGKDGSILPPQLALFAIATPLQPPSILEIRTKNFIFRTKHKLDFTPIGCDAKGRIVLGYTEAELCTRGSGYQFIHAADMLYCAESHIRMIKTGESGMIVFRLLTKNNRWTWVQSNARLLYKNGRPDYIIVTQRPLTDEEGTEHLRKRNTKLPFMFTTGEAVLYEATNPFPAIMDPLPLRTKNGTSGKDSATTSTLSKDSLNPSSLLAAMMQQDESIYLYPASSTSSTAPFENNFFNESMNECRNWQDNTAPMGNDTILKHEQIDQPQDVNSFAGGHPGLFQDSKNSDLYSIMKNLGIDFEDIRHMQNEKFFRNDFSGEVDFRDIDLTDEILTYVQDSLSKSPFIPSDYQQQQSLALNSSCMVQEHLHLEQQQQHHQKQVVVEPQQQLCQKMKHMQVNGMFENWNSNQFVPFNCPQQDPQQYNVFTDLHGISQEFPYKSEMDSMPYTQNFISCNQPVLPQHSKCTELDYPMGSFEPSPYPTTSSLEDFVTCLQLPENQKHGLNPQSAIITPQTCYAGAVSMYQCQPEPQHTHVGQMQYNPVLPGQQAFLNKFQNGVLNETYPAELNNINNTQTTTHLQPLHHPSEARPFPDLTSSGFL

Sequence of DNA repair and recombination protein RAD54-like (Q92698 whole entry): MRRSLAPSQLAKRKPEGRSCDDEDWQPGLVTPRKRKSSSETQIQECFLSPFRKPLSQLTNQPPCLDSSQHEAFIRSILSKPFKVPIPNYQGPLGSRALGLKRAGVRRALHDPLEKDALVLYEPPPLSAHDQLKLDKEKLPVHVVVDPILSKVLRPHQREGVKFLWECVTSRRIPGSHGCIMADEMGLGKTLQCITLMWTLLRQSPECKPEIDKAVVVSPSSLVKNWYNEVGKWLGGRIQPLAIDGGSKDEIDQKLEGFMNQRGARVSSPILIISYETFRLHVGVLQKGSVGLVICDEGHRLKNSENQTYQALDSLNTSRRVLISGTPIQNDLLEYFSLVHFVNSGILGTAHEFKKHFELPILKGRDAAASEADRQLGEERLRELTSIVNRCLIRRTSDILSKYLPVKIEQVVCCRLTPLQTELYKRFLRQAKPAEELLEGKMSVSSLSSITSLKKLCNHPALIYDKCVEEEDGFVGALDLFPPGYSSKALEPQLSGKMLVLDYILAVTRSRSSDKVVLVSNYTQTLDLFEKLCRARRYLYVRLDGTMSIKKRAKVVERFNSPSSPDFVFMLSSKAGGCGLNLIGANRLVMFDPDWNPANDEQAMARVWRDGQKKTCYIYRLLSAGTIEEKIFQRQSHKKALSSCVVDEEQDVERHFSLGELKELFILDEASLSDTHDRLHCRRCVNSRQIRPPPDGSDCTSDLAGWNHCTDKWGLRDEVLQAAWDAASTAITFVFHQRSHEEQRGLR

With CCNC1CCC(Nc2ccnc3cc(Cl)ccc23)CC1 (stereo unspecified) the AC50 [1] was 25.9 µM (active) and the AC50 [2] was 7.52 µM (active).
For Oc1nc2ccccc2n1C1CCN(C(c2nnnn2C2CCCCC2)C2CC2)CC1 (stereo unspecified), the IC50 [3] was 3.14 µM (active).
In the case of O=[N+]([O-])c1ccc(O)c(/C=N/NC2=NS(=O)(=O)c3ccccc32)c1, the IC50 [4] was 2.35 µM (active), the IC50 [5] was 34.9 µM (active) and the IC50 [6] was 5.41 µM (active). For the same compound, the IC50 [7] was 36.8 µM (active).
For CC1=C(C)/C(=N\OS(=O)(=O)c2ccc(C)cc2)C=CC1=O, the EC50 [8] was 35.2 µM (active), the EC50 [9] was 37.6 µM (active) and the IC50 [10] was 5.11 µM (active). For the same compound, the AC50 [11] was 1.61 µM (active), the AC50 [12] was 2.15 µM (active) and the IC50 [13] was 3.42 µM (active). For the same compound, the IC50 [14] was 31 µM (inactive).
For C[C@H](O)[C@@H]1C(=O)N2CCc3c([nH]c4ccccc34)[C@@H]2C[C@@H]1N(C)Cc1ccc2c(c1)OCO2, the IC50 [15] was 1.34 µM (active), the IC50 [16] was 83.3 µM (inactive) and the IC50 [17] was 0.672 µM (active). For the same compound, the IC50 [18] was > 83.3 µM (inactive).
For Nc1ccc2cc3ccccc3cc2c1 [2-AMINOANTHRACENE], the AC50 [19] was 122 µM (active), the AC50 [20] was 15.8 µM (inconclusive) and the AC50 [21] was 25.1 µM (inconclusive).
